In patent US5869484A, “Phenylcarbamate derivatives suitable to the use as anticholinesterase substances” (priority 1994, dated 1999):
Read-outs that look alike come from different tables or passages of the source.

Experiments:
[1] = prior art; cited from earlier work
[2] = prior art; cited from earlier work; remark: listed apart in the source
BuChE hserum = target: T1, BuChE hserum (Homo sapiens, UniProt P06276); test: Inhibition of butyrylcholinesterase from human serum (Ellman method); format: biochemical
T1 construct: purchased Sigma Chemical; host or cells: human serum
Description: (§1) The incubation time between enzyme and product used for the determinations has been 10'.
(§2) The acetylcholinesterase from human erythrocytes (AChE hRBC), the acetylcholinesterase from Electric Eel (AChE E.eel) and the butyrylcholinesterase from human serum (BuChE hserum) coming from the Sigma Chemical have been used.

[3] = Acute toxicity (single administration) in mouse; conditions: in vivo
acetylcholinesterase = conditions: prior art; cited from earlier work
AChE E. eel = target: T2, AChE E. eel (Electrophorus electricus, UniProt O42275); test: biochemical; set-up: species or system Electric Eel
T2 construct: purchased Sigma Chemical
Description: as §1, §2

[4] = Acute toxicity (single administration) in rat; conditions: in vivo
[5] = test system: amnesic failure induced by scopolamine; test: Passive Avoidance test, scopolamine-induced amnesic failure, rats; format: in vivo; conditions: 0.5-1-2-4 mg/kg per os
AChE hRBC = target: T3, AChE hRBC (Homo sapiens, UniProt P22303); test: biochemical
T3 construct: purchased Sigma Chemical; host or cells: human erythrocytes
Description: as §1, §2

[6] = test system: mental pathologies / Alzheimer's disease; conditions: prior art, clinical studies; cited from earlier work
[7] = iv, read-out: Toxicity tests (LD50), mouse iv
[8] = po, os, read-out: Toxicity tests (LD50), mouse os
[9] = po, os, read-out: Toxicity tests (LD50), rat os

T3 sequence (P22303 32-617 isoform P22303-2 limits assumed): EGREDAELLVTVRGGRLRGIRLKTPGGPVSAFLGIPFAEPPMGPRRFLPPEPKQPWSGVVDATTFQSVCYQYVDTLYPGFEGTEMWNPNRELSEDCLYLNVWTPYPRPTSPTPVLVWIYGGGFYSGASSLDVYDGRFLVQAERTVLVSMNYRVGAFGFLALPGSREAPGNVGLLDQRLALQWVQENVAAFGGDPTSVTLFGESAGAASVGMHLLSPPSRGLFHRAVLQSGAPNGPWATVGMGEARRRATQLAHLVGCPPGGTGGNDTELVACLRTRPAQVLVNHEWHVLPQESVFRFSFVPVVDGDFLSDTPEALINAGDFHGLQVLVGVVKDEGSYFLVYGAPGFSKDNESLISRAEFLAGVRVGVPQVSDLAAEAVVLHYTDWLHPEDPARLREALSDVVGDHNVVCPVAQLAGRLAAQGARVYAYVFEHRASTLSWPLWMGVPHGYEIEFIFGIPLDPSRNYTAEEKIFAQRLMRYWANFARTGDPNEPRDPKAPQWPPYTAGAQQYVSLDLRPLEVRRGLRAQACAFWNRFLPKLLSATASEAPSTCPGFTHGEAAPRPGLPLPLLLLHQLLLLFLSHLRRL
T2 sequence (O42275 24-633): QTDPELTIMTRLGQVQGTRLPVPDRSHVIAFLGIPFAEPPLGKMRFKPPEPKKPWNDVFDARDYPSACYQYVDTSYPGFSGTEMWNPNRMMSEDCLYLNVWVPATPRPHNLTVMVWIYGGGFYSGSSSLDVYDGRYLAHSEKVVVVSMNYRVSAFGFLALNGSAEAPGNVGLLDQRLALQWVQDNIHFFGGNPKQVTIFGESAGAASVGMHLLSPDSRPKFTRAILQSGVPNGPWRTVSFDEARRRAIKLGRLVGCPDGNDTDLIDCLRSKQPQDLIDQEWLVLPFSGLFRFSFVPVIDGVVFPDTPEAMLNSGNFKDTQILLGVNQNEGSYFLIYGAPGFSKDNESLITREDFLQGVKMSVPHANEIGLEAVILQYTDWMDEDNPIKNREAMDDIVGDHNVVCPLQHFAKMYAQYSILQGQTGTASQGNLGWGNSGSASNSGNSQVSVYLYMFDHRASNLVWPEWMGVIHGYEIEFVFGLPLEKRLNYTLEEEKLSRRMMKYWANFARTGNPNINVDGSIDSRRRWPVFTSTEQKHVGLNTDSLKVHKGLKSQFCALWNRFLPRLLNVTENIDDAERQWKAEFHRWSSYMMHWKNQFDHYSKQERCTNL
T1 sequence (P06276 29-602): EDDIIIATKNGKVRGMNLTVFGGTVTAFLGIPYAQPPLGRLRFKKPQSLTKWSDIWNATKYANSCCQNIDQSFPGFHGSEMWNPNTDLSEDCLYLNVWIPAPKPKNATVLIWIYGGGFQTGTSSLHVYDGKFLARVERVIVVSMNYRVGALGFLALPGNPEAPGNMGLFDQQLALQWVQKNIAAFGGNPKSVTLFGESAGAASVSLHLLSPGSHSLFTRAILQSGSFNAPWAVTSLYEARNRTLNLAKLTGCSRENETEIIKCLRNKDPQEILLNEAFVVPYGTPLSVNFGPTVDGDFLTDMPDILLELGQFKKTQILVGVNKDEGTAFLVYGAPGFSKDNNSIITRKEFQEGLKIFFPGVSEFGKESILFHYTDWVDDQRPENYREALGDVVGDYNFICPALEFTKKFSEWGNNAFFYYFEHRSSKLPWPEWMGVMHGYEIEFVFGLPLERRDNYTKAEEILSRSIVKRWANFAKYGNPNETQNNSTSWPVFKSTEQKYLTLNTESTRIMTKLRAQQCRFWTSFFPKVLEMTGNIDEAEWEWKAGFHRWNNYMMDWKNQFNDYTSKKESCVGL

| SMILES | pharmacokinetic characteristics [1] | side-effects [2] | IC50 (BuChE hserum) [µM] | LD50 [3, 7] [mg/kg] | LD50 [3, 8] [mg/kg] | inhibition of acetylcholinesterase (acetylcholinesterase) | IC50 (AChE E. eel; incubation time 10', read-out: Inhibition of the cholinesterase (IC50 M), AChE E. eel) [µM] | LD50 ([4]; iv, read-out: Toxicity tests (LD50), rat iv) [mg/kg] | LD50 [4, 9] [mg/kg] | reduction of amnesic failure induced by scopolamine in the Passive Avoidance test [5] | IC50 (AChE hRBC) [µM] | potency compared with eptastigmine, physostigmine or tacrine (AChE hRBC; comparison from Table 1) | IC50 (AChE E. eel) [µM] | efficacy in patients [6] | potency compared with eptastigmine, physostigmine or tacrine (AChE hRBC) |
| --- | --- | --- | --- | --- | --- | --- | --- | --- | --- | --- | --- | --- | --- | --- | --- |
| CCCCCCCNC(=O)Oc1ccc2c(c1)[C@]1(C)CCN(C)[C@@H]1N2C [Eptastigmine, heptylcarbamic ester of the eseroline, reference compound] | better pharmacokinetic characteristics | reduced side-effects | 0.14 | 7 | 25 | less powerful | 0.05 | 5 | 23 |  |  |  |  |  |  |
| CN(C)CC(C)(C)c1cccc(OC(=O)NCCCCCCCCN2CCOCC2)c1 [Ex. 1, 3-[(1-dimethylamino-2-methyl)prop-2-yl]-N-[8-(4-morpholinyl)octyl]phenylcarbamate] |  |  | 0.016 | 15 | 67 |  |  |  | 33 | able to reduce the amnesic failure induced by scopolamine | 0.16 | equal or even superior to that of eptastigmine or of physostigmine | 0.47 |  |  |
| CNC(=O)Oc1ccc2c(c1)[C@]1(C)CCN(C)[C@@H]1N2C [Physostigmine, reference compound] | unfavourable pharmacokinetic characteristics |  |  | 0.6 | 3.4 | powerful natural inhibitor of the acetylcholinesterase |  |  |  |  |  |  |  | beneficial results in the treatment of the patients affected by mental pathologies | superior to that of tacrine |
